# Data as given in article PMC8011931, “Identification, Structure–Activity Relationship, and Biological Characterization of 2,3,4,5-Tetrahydro-1H-pyrido[4,3-b]indoles as a Novel Class of CFTR Potentiators” (Journal of Medicinal Chemistry, 2020).
# Assays:
# [1] = Aqueous kinetic solubility assay; format: physicochemical; conditions: PBS, pH 7.4; n = 3
# Description: The aqueous kinetic solubility was determined from a 10 mM DMSO stock solution of test compound in PBS at pH 7.4. The study was performed by incubation of an aliquot of 10 mM DMSO stock solution in PBS (pH 7.4) at a target concentration of 250 μM (2.5% DMSO). The incubation was carried out under shaking at 25 °C for 24 h, followed by centrifugation at 21,100g for 30 min. The supernatant was further diluted (4:1) with CH3CN and the dissolved test compound was quantified by UV at 215 nm on a Waters ACQUITY UPLC/MS system consisting of an SQD mass spectrometer equipped with an electrospray ionization interface and a photodiode array detector. Electrospray ionization in the positive mode was used in the mass scan range of 100–500 Da. The PDA range was 210–400 nm. The analyses were run on an ACQUITY UPLC BEH C18 column (50 × 2.1 mm ID, particle size 1.7 μm) with a VanGuard BEH C18 precolumn (5 × 2.1 mm ID, particle size 1.7 μm) using 10 mM NH4OAc in H2O at pH 5 adjusted with AcOH (A) and 10 mM NH4OAc in CH3CN–H2O (95:5) at pH 5 (B) as the mobile phase.
# [2] = Liver microsomal stability, phase I (NADPH), rat; format: in vitro ADME; conditions: for rat LM_NADPH parent compound remaining at the last time point (in parentheses): 4.6 μM, 60 min; for half-life at 4.6 μM / half-life at 1 h, 4.6 µM: rat, liver microsomes, pH 7.5, 0.1% DMSO, n ≥ 3, read-out: rat LM_NADPH t1/2
# Description: (§1) Phase I: 10 mM DMSO stock solution of the test compound was preincubated at 37 °C for 15 min with rat, dog, or human liver microsomes in 0.1 M Tris–HCl buffer (pH 7.5) with 10% DMSO. The final concentration was 4.6 μM. After preincubation, the cofactors (NADPH, G6P, G6PDH, and MgCl2 predissolved in 0.1 M Tris–HCl) were added to the incubation mixture and the incubation was continued at 37 °C for 1 h.
# (§2) For both phase I and II studies: At each time point (0, 5, 15, 30, and 60 min), 30 μL of the incubation mixture was diluted with 200 μL of cold CH3CN spiked with 200 nM of an appropriate internal standard, followed by centrifugation at 3270g for 15 min. The supernatant was further diluted with H2O (1:1) for analysis. A reference incubation mixture (microsomes without cofactors) was prepared for each test compound and analyzed at t = 0 and 60 min in order to verify the compound’s stability in the matrix. The two time points were diluted as for the time points of the incubation mixture above. The supernatants were analyzed by LC/MS–MS on a Waters ACQUITY UPLC/MS TQD system consisting of a TQD (triple quadrupole detector) mass spectrometer equipped with an electrospray ionization interface and a photodiode array eλ detector. Electrospray ionization was applied in positive mode. Compound-dependent parameters as MRM transitions and collision energy were developed for each compound. The analyses were run on an ACQUITY UPLC BEH C18 (50 × 2.1 mm ID, particle size 1.7 μm) with a VanGuard BEH C18 precolumn (5 × 2.1 mm ID, particle size 1.7 μm) at 40 °C, using H2O + 0.1% HCOOH (A) and CH3CN + 0.1% HCOOH (B) as the mobile phase. The percentage of test compound remaining at each time point relative to t = 0 was calculated by the response factor on the basis of the internal standard peak area. The percentage of test compound versus time was plotted and fitted by GraphPad Prism (GraphPad Software, Version 5 for Windows, CA, USA, www.graphpad.com) to estimate the compound’s half-life (t1/2), which was reported as mean value along with the standard deviation (n = 3).
# [3] = Liver microsomal stability, phase I (NADPH), dog; format: in vitro ADME; conditions: for dog LM_NADPH parent compound remaining at the last time point (in parentheses): 4.6 μM, 60 min; for half-life at 4.6 μM: dog, liver microsomes, pH 7.5, 0.1% DMSO, n ≥ 3, read-out: dog LM_NADPH t1/2
# Description: […] The final concentration was 4.6 μM. After preincubation, the cofactors (NADPH, G6P, G6PDH, and MgCl2 predissolved in 0.1 M Tris–HCl) were added to the incubation mixture and the incubation was continued at 37 °C for 1 h.
# as §2
# [4] = Liver microsomal stability, phase I (NADPH), human; format: in vitro ADME; conditions: for human LM_NADPH parent compound remaining at the last time point (in parentheses): 4.6 μM, 60 min; for half-life at 4.6 μM / half-life at 1 h, 4.6 µM: human, liver microsomes, pH 7.5, 0.1% DMSO, n ≥ 3, read-out: human LM_NADPH t1/2
# Description: as §1, §2
# [5] = Liver microsomal stability, phase II (UDPGA), human; format: in vitro ADME; conditions: for human LM_UDPGA parent compound remaining at the last time point (in parentheses): 4.6 μM, 60 min; for half-life at 4.6 μM: human, liver microsomes, pH 7.5, 0.1% DMSO, n ≥ 3, read-out: human LM_UDPGA t1/2
# Description: as §1, with “II:” for “I:”, “with” for “with rat, dog, or”, “microsomes added alamethicin” for “microsomes”, “(UDPGA, D-saccharic acid lactone,” for “(NADPH, G6P, G6PDH,”
# as §2
Structure (SMILES),"solubility kinetic at 24 h, 250 µM [1] [µM]",rat LM_NADPH parent compound remaining at the last time point (in parentheses) [2] [%],half-life at 4.6 μM [2] [min],dog LM_NADPH parent compound remaining at the last time point (in parentheses) [3] [%],half-life at 4.6 μM [3] [min],human LM_NADPH parent compound remaining at the last time point (in parentheses) [4],half-life at 4.6 μM [4] [min],"half-life at 1 h, 4.6 µM [2] [min]","half-life at 1 h, 4.6 µM [4] [min]",solubility kinetic at 24 h [1] [µM],human LM_UDPGA parent compound remaining at the last time point (in parentheses) [5] [%],half-life at 4.6 μM [5] [min]
"O=C(c1cc(C(F)(F)F)[nH]n1)N1CCc2[nH]c3c(F)cccc3c2C1 [Compound 20, (6-Fluoro-1,3,4,5-tetrahydro-2H-pyrido[4,3-b]indol-2-yl)-(5-(trifluoromethyl)-1H-pyrazol-3-yl)methanone]",9 ± 4,64,> 60,85,> 60,78%,> 60,–,–,–,–,–
"COc1cc(F)c2[nH]c3c(c2c1)CN(C(=O)c1cc(C(F)(F)F)[nH]n1)CC3 [Compound 25, (6-Fluoro-8-methoxy-1,3,4,5-tetrahydro-2H-pyrido[4,3-b]indol-2-yl)-(5-(trifluoromethyl)-1H-pyrazol-3-yl)methanone]",2 ± 1,–,–,90,> 60,–,–,20 ± 1,33 ± 1,–,–,–
"Cc1ccc(F)c2[nH]c3c(c12)CN(C(=O)c1cc(C(F)(F)F)[nH]n1)[C@H](C)C3 [Compound 39, (R)-(6-Fluoro-3,9-dimethyl-1,3,4,5-tetrahydro-2H-pyrido[4,3-b]indol-2-yl)-(5-(trifluoromethyl)-1H-pyrazol-3-yl)methanone]",–,70,> 60,92,> 60,71%,> 60,–,–,< 1,79,> 60
"Cc1ccc(F)c2[nH]c3c(c12)CN(C(=O)c1cc(C(F)(F)F)[nH]n1)CC3 [Compound 30, (6-Fluoro-9-methyl-1,3,4,5-tetrahydro-2H-pyrido[4,3-b]indol-2-yl)-(5-(trifluoromethyl)-1H-pyrazol-3-yl)methanone]",–,–,–,92,> 60,–,–,32 ± 1,53 ± 2,< 1,75,> 60
"COc1ccc2[nH]c3c(c2c1)CN(C(=O)c1cc(C(F)(F)F)[nH]n1)CC3 [Compound 3, (8-Methoxy-1,3,4,5-tetrahydropyrido[4,3-b]indol-2-yl)-[5-(trifluoromethyl)-1H-pyrazol-3-yl]methanone]",237 ± 11,–,–,68,> 60,–,–,30 ± 1,42 ± 11,–,–,–
"O=C(c1cc(C(F)(F)F)[nH]n1)N1CCc2[nH]c3c(F)ccc(F)c3c2C1 [Compound 29, (6,9-Difluoro-1,3,4,5-tetrahydro-2H-pyrido[4,3-b]indol-2-yl)-(5-(trifluoromethyl)-1H-pyrazol-3-yl)methanone]",36 ± 5,–,–,93,> 60,>60 (60) %,> 60,50 ± 9,–,–,–,–
